Assay results: paper PMC11042424, “Development of a First-in-Class RIPK1 Degrader to Enhance Antitumor Immunity” (Research Square, 2024)
Like-named read-outs stand apart in the source and are kept apart here.

Key:
B16F10 tumors = assay: B16F10 syngeneic tumor model with anti-PD1; type: in vivo
Procedure: (§1) Figure 4 LD4172 synergizes with Anti-PD1 to inhibit tumor growth. A, Plasma concentrations of LD4172 in C57BL/6J mice administered 1 mg/kg intravenously (i.v.) or 10 mg/kg intraperitoneally (i.p.) (n=4). B, Representative immunoblots of RIPK1 in different tissues of C57BL/6J mice treated with LD4172 (n=3–4). C, Densitometric analysis of RIPK1 protein levels in different tissues (n=3 or 4). D, Representative immunoblots of RIPK1 levels of B16F10 cells transduced with gRNA specific for RIPK1 or non-targetable control (sgNC). E, B16F10-RIPK1-KO tumors sensitized to anti-PD1 treatment: 3×10^5 B16F10 cells transduced with gRNA specific for RIPK1 or non-targetable control (sgNC) were inoculated into C57BL/6J mice. After seven days, mice with measurable tumors (~100 mm3) were randomly treated with or without anti-PD1 in vivo (100 μg per dose, i.p., every three days, n=8). F, Tumor growth curve of mice with B16F10 tumors treated with LD4172 and/or anti-PD1 (n=8). C57B6/J mice were subcutaneously inoculated with 3×10^5 B16F10 tumor cells. After seven days (tumor size ~ 100 mm3), mice were treated every three days with anti- PD1 (100 μg per dose, i.p.), daily with LD4172 (20 mg/kg, i.p.), a combination of LD4172 and anti-PD1 (same dose as their individual doses), or their corresponding vehicle control. G, Kaplan-Meier survival curve for all experimental groups. H, Final tumor weight (g) from F after 22d of treatment (n=8). I, Representative images of B16F10 tumors collected at the end of treatment. J, Mouse body weight (n=8). K, Tumor growth curve of mice with B16F10 tumors treated with T2I and/or anti-PD1 (n=8). The experimental conditions and treatment regimens were the same as F except using the RIPK1 kinase inhibitor T2I (20 mg/kg, i.p.) to replace LD4172. Representative data from at least three independent experiments are shown. Data are expressed as the mean ± SEM. * p<0.05; ** p<0.01; *** p<0.001, **** p<0.0001, respectively. ns, indicates no statistical significance.
To establish a syngeneic mouse model, 3× 10^5 B16F10 cells resuspended in PBS were mixed 1:1 by volume with Matrigel (354262, Corning) and subcutaneously injected into the right flank of seven-week-old wild-type female C57BL/6J mice on day 0. Treatments were started on day 7 when the tumor volume reached approximately 100 mm^3. Antibodies were administered in 100μL volumes and injected intraperitoneally every three days for the following: anti-PD1 (100 μg, BE0146, BioXcell) and anti-CD8 (500 μg, BE0004, BioXcell). The RIPK1 degrader LD4172 and RIPK1 kinase inhibitor T2I were delivered in 200 μL of vehicle solution (30% PEG400, 5% Tween-80, 5% DMSO) once daily (20 mg/kg, i.p. injection). […] Tumors were measured every three days beginning on day 7 after the challenge until death. […]

[1] = Stability in human liver S9 fractions; type: in vitro ADME
hERG channel = hERG channel (Homo sapiens, UniProt Q12809); assay: hERG channel inhibition assay; conditions: at 30 μM
[2] = Pharmacokinetics in C57BL/6J mice; type: in vivo; conditions: mouse, plasma
Procedure: Next, we evaluated the pharmacokinetics (PK) of LD4172 in C57BL/6J (B6) mice (Fig. 4A).
as §1

hERG channel, sequence (Q12809 whole entry): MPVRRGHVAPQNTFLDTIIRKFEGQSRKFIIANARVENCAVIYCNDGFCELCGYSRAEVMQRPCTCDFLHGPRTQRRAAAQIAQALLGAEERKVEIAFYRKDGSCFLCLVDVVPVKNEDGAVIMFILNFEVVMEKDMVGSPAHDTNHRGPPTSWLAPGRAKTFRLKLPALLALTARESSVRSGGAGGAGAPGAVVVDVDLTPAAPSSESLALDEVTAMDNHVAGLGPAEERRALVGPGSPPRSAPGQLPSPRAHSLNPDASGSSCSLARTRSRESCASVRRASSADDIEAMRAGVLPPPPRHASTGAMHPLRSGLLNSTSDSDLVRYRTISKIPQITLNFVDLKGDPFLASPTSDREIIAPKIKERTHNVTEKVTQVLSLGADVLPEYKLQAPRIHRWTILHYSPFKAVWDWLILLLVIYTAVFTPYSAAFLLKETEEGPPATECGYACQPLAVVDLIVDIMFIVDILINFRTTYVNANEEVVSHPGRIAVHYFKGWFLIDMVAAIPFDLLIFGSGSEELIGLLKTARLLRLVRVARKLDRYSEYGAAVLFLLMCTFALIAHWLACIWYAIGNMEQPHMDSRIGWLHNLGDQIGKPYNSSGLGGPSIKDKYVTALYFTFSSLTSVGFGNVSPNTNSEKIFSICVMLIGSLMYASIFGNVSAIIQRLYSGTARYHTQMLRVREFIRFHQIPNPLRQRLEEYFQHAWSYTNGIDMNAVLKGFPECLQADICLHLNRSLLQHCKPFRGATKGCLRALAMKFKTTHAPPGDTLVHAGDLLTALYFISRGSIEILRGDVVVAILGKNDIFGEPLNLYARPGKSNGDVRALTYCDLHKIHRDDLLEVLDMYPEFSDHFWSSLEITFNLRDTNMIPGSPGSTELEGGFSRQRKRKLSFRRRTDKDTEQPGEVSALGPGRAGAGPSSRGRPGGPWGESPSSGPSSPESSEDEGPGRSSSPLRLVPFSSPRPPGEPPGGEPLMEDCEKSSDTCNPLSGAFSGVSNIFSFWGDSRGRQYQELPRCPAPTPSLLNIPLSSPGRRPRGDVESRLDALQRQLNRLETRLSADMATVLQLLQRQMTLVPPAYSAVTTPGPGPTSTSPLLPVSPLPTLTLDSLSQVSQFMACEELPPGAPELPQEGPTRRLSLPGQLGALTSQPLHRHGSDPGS

## Cc1ncsc1-c1ccc([C@H](C)NC(=O)[C@@H]2C[C@@H](O)CN2C(=O)[C@@H](NC(=O)CCCCCCCCCCC(=O)NCCCn2cc(-c3ccc4c(c3)CCN4C(=O)Cc3cccc(OC(F)(F)F)c3)c3c(N)ncnc32)C(C)(C)C)cc1 [LD4172]
B16F10 tumors; B16F10 tumors, 20 mg/kg i.p. daily plus anti-PD1 100 μg i.p. every three days
  tumor response in combination with anti-PD1: sensitized B16F10 tumors to anti-PD1 therapy
B16F10 tumors; B16F10 tumors, LD4172 20 mg/kg i.p. daily, anti-PD1 100 μg i.p. every three days
  tumor progression, single agent: tumor progression similar to that of the untreated mice
B16F10 tumors; long-term administration
  mouse body weight: no impact on mouse body weight
[1]
  half-life: 0.352 h
  intrinsic clearance (CLint): 32.8 μL·min^− 1·mg^− 1 protein
hERG channel
  inhibition of hERG: no obvious inhibition
[2]; intraperitoneal, i.p. 10 mg/kg vs i.v. 1 mg/kg
  bioavailability: 39%
[2]; ip, 10 mg/kg i.p., read-out: AUC
  AUC: 2.7 µM·h
[2]; ip, 10 mg/kg i.p., read-out: Cmax
  Cmax: 2.9 µM
[2]; ip, 10 mg/kg i.p., read-out: t1/2 (converted)
  half-life: 1.5 h
[2]; iv, 1 mg/kg i.v.
  clearance: 19.8 ± 1.8 mL/min/kg
[2]; iv, 1 mg/kg i.v., read-out: area under the concentration-time curve (AUC)
  AUC: 0.7 ± 0.07 µM·h
[2]; iv, 1 mg/kg i.v., read-out: half-life (t1/2) (converted)
  half-life: 3.3 ± 2.1 h
[2]; iv, 1 mg/kg i.v., read-out: maximum plasma concentration (Cmax)
  Cmax: 6.3 ± 0.8 µM
[2]; iv, 1 mg/kg i.v., read-out: volume of distribution (Vd)
  Vd: 1.1 ± 0.2 L/kg
